Reference: patent US9376387B2 (priority 2013, dated 2016)

Biological target: T1, hAChE (human erythrocyte membranes as a AChE source) (Homo sapiens, UniProt P22303)
T1 construct: human erythrocyte membranes as a AChE source; from tissue; host or cells: human erythrocyte membranes
Test: acetylcholinesterase (AChE) activity, modified Ellman method
Format: biochemical
Settings: IC50, enzyme not named in the examples; AChE per the Table

T1 sequence (P22303 32-617 isoform P22303-2 limits assumed): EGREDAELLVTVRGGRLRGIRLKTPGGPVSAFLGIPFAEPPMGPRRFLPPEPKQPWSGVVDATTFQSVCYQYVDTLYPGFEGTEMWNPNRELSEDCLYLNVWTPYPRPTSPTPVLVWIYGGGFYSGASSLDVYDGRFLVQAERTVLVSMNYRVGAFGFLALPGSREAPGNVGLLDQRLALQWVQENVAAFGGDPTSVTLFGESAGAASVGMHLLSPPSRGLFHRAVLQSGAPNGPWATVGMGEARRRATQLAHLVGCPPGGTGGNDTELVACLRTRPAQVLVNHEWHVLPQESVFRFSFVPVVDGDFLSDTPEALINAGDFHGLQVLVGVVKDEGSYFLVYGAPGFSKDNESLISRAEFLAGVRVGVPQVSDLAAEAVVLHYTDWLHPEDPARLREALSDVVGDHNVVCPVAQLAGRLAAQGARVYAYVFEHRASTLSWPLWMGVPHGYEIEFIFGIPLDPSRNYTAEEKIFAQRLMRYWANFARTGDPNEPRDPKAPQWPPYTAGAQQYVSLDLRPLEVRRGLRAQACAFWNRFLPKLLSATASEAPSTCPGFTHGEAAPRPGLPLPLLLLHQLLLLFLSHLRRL

| SMILES | IC50 [nM] |
| --- | --- |
| COc1cc2c(cc1OC)C(=O)C(CC1C=CN(Cc3ccccc3)C=C1C#N)C2 (stereo not shown) [Compound 27, 1-Benzyl-4-(5,6-dimethoxy-1-oxo-2,3-dihydro-1H-inden-2-yl)methyl-1,4-dihydropyridine-3-carbonitrile] | 175 |
| COc1cc2c(cc1OC)C(=O)C(Cc1cc[n+](Cc3ccccc3)cc1C#N)C2 (stereo not shown) [Compound 26, 1-Benzyl-3-cyano-4-(5,6-dimethoxy-1-oxo-2,3-dihydro-1H-inden-2-yl)methylpyridinium iodide] | 11.2 |
| COc1cc2c(cc1OC)C(=O)C(Cc1cc[n+](Cc3ccccc3)cc1C(C)=O)C2 (stereo not shown) [Compound 33, 1-Benzyl-3-actyl-4-(5,6-dimethoxy-1-oxo-2,3-dihydro-1H-inden-2-yl)methyl pyridinium bromide] | 18 |
| COc1cc2c(cc1OC)C(=O)C(CC1C=CN(Cc3ccccc3)C=C1C(C)=O)C2 (stereo not shown) [Compound 34, 1-Benzyl-4-(5,6-dimethoxy-1-oxo-2,3-dihydro-1H-inden-2-yl)methyl-1,4-dihydropyridine-3-acetyl] | 528 |
| COc1cc2c(cc1OC)C(=O)C(Cc1cc[n+](Cc3ccccc3)cc1)C2 (stereo not shown) [Compound 23, 1-Benzyl-4-((5,6-dimethoxy-1-oxo-2,3-dihydro-1H-inden-2-yl)methyl)pyridinium iodide] | 36.8 |

Same assay, conditions: hAChE IC50, modified Ellman method, acetylthiocholine iodide substrate, pH=7.4

| SMILES | IC50 [nM] |
| --- | --- |
| COc1cc2c(cc1OC)C(=O)C(Cc1cc[n+](Cc3cccc(C)c3)cc1Br)C2 (stereo not shown) [Compound 146, 2-[[3-bromo-1-(m-tolylmethyl)pyridin-1-ium-4-yl]methyl]-5,6-dimethoxy-indan-1-one bromide] | 0.465 |
| COc1ccc2c(c1)CCC(Cc1cc[n+](Cc3cccc(Cl)c3)cc1C(C)=O)C2=O (stereo not shown) [Compound 122, 2-[[3-acetyl-1-[(3-chlorophenyl)methyl]pyridin-1-ium-4-yl]methyl]-6-methoxy-tetralin-1-one bromide] | 71 |
| COc1cc2c(cc1OC)C(=O)/C(=C/c1cc[n+](Cc3ccccc3)cc1C(C)=O)C2 [Compound 149, (2E)-2-[(3-actyl-1-benzyl-pyridin-1-ium-4-yl)methylene]-5,6-dimethoxy-indan-1-one bromide] | 20.1 |
| COc1cc2c(cc1OC)C(=O)C(CC1C=CN(Cc3ccccc3C)C=C1C(C)=O)C2 (stereo not shown) [Compound 169, 2-[[3-acetyl-1-(o-tolylmethyl)-4H-pyridin-4-yl]methyl]-5,6-dimethoxy-indan-1-one] | 428 |
| CC(=O)c1c[n+](Cc2ccccc2C)ccc1CC1Cc2cc(Cl)ccc2C1=O (stereo not shown) [Compound 136, 2-[[3-acetyl-1-(o-tolylmethyl)pyridin-1-ium-4-yl]methyl]-5-chloro-indan-1-one bromide] | 262 |
| COc1ccc2c(c1)CCC(Cc1cc[n+](Cc3cccc(C(F)(F)F)c3)cc1C(C)=O)C2=O (stereo not shown) [Compound 124, 2-[[3-acetyl-1-[[3-(trifluoromethyl)phenyl]methyl]pyridin-1-ium-4-yl]methyl]-6-methoxy-tetralin-1-one bromide] | 308 |
| COc1cc2c(cc1OC)C(=O)C(Cc1cc[n+](Cc3ccccc3)cc1C(C)=O)CC2 (stereo not shown) [Compound 132, 2-[(3-actyl-1-benzyl-pyridin-1-ium-4-yl)methyl]-6,7-dimethoxy-tetralin-1-one bromide] | 24.2 |
| COc1cc2c(cc1OC)C(=O)C(Cc1cc[n+](Cc3ccccc3)cc1C#N)C2 (stereo not shown) [Compound 26, 1-Benzyl-3-cyano-4-(5,6-dimethoxy-1-oxo-2,3-dihydro-1H-inden-2-yl)methylpyridinium iodide] | 11.3 |

Biological target: EqBuChE (Equus caballus, UniProt P81908)
Test: biochemical
Settings: EqBuChE IC50

Sequence of EqBuChE (P81908 whole entry): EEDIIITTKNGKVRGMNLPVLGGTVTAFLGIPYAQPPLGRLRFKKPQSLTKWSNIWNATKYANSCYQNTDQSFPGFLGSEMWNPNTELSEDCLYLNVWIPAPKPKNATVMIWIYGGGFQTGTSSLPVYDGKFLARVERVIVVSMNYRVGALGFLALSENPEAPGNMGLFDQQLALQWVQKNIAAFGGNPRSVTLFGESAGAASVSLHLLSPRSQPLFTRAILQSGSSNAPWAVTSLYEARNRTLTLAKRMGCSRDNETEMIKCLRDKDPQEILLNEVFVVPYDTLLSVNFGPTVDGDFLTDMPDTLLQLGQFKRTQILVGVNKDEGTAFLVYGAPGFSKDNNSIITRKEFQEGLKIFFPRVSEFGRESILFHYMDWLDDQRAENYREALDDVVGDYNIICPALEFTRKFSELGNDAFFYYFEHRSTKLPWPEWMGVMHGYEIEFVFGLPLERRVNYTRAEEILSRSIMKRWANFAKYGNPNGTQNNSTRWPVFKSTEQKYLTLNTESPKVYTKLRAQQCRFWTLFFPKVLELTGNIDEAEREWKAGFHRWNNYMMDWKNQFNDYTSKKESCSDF

| SMILES | IC50 [nM] |
| --- | --- |
| CC(=O)C1=CN(Cc2ccccc2C)C=CC1CC1Cc2cc3c(cc2C1=O)OCO3 (stereo not shown) [Compound 165, 6-[[3-acetyl-1-(o-tolylmethyl)-4H-pyridin-4-yl]methyl]-5,6-dihydrocyclopenta[f][1,3]benzodioxol-7-one] | 4610 |
| COc1ccc2c(c1)CCC(CC1C=CN(Cc3ccccc3C)C=C1C(C)=O)C2=O (single isomer, unassigned) [Compound 160-B, 2-[[3-acetyl-1-(o-tolylmethyl)-4H-pyridin-4-yl]methyl]-6-methoxy-tetralin-1-one] | 5640 |
| COc1cc2c(cc1OC)C(=O)C(Cc1cc[n+](Cc3cccc(C)c3)cc1Br)C2 (stereo not shown) [Compound 146, 2-[[3-bromo-1-(m-tolylmethyl)pyridin-1-ium-4-yl]methyl]-5,6-dimethoxy-indan-1-one bromide] | 3860 |
| COc1ccc2c(c1)CCC(Cc1cc[n+](Cc3cccc(Cl)c3)cc1C(C)=O)C2=O (stereo not shown) [Compound 122, 2-[[3-acetyl-1-[(3-chlorophenyl)methyl]pyridin-1-ium-4-yl]methyl]-6-methoxy-tetralin-1-one bromide] | 496 |
| CC(=O)C1=CN(Cc2ccccc2C)C=CC1CC1Cc2cc(C)ccc2C1=O (stereo not shown) [Compound 163, 2-[[3-acetyl-1-(o-tolylmethyl)-4H-pyridin-4-yl]methyl]-5-methyl-indan-1-one] | 4820 |
| COc1ccc2c(c1)CCC(Cc1cc[n+](Cc3cccc(C(F)(F)F)c3)cc1C(C)=O)C2=O (stereo not shown) [Compound 124, 2-[[3-acetyl-1-[[3-(trifluoromethyl)phenyl]methyl]pyridin-1-ium-4-yl]methyl]-6-methoxy-tetralin-1-one bromide] | 2170 |
| COc1ccc(C(=O)N(CCCC2C=CN(Cc3ccccc3)C=C2C(C)=O)c2ccccc2)cc1OC (stereo not shown) [Compound 36, N-[3-(3-acetyl-1-benzyl-4H-pyridin-4-yl)propyl]-3,4-dimethoxy-N-phenyl-benzamide] | 4600 |
| COc1ccc2c(c1)CCC(CC1C=CN(Cc3ccccc3F)C=C1C(C)=O)C2=O (stereo not shown) [Compound 55, 2-[[3-acetyl-1-[(2-fluorophenyl)methyl]-4H-pyridin-4-yl]methyl]-6-methoxy-tetralin-1-one] | 6010 |
| COc1ccc2c(c1)CCC(CC1C=CN(Cc3ccccc3C(F)(F)F)C=C1C(C)=O)C2=O (stereo not shown) [Compound 67, 2-[[3-acetyl-1-[[2-(trifluoromethyl)phenyl]methyl]-4H-pyridin-4-yl]methyl]-6-methoxy-tetralin-1-one] | 3050 |
| COc1ccc2c(c1)CC(CC1C=CN(Cc3ccccc3C)C=C1C(C)=O)C2=O (stereo not shown) [Compound 164, 2-[[3-acetyl-1-(o-tolylmethyl)-4H-pyridin-4-yl]methyl]-5-methoxy-indan-1-one] | 5440 |
| COc1ccc2c(c1)CCC(CC1C=CN(Cc3ccccc3Cl)C=C1C(C)=O)C2=O (stereo not shown) [Compound 157, 2-[[3-acetyl-1-[(2-chlorphenyl)methyl]-4H-pyridin-4-yl]methyl]-6-methoxy-tetralin-1-one] | 5780 |
| COc1ccc2c(c1)CCC(CC1C=CN(Cc3ccccc3C)C=C1C(C)=O)C2=O (single isomer, unassigned) [Compound 160-C, 2-[[3-acetyl-1-(o-tolylmethyl)-4H-pyridin-4-yl]methyl]-6-methoxy-tetralin-1-one] | 4700 |
| COc1ccc(C(=O)N(CCC2C=CN(Cc3ccccc3)C=C2C(C)=O)c2ccccc2)cc1OC (stereo not shown) [Compound 32, N-[2-(3-acetyl-1-benzyl-4H-pyridin-4-yl)ethyl]-3,4-dimethoxy-N-phenyl-benzamide] | 6210 |
| COc1ccc2c(c1)CCC(CC1C=CN(Cc3cccc(F)c3)C=C1C(C)=O)C2=O (stereo not shown) [Compound 156, 2-[[3-acetyl-1-[(3-fluorophenyl)methyl]-4H-pyridin-4-yl]methyl]-6-methoxy-tetralin-1-one] | 4400 |
| COc1ccc2c(c1)CCC(CC1C=CN(Cc3ccccc3C)C=C1C(C)=O)C2=O (stereo not shown) [Compound 59, 2-[[3-acetyl-1-(o-tolylmethyl)-4H-pyridin-4-yl]methyl]-6-methoxy-tetralin-1-one] | 8270 |
| COc1ccc2c(c1)CCC(CC1C=CN(Cc3ccccc3C)C=C1C(C)=O)C2=O (racemic) [Compound 160, 2-[[3-acetyl-1-(o-tolylmethyl)-4H-pyridin-4-yl]methyl]-6-methoxy-tetralin-1-one] | 8270 |
| COc1ccc2c(c1)CCC(CC1C=CN(Cc3cccc(C)c3)C=C1C(C)=O)C2=O (stereo not shown) [Compound 61, 2-[[3-acetyl-1-(m-tolylmethyl)-4H-pyridin-4-yl]methyl]-6-methoxy-tetralin-1-one] | 4020 |
| COc1ccc2c(c1)CCC(CC1C=CN(Cc3ccc(F)cc3)C=C1C(C)=O)C2=O (stereo not shown) [Compound 155, 2-[[3-acetyl-1-[(4-fluorophenyl)methyl]-4H-pyridin-4-yl]methyl]-6-methoxy-tetralin-1-one] | 2270 |
